Patent US7732468B2, “3-aryl-6-aryl-[ 1,2,4]triazolo[3,4-b][1,3,4]thiadiazoles and related compounds as activators of caspases and inducers of apoptosis and the use thereof” (Cytovia, Inc., priority 2006, dated 2010)

How the values were obtained:
Type in all cases: cell-based
[1] = tested on: human lymphoma cell line Raji; assay: Caspase cascade activation in Raji cells; settings: RAJ1 cells, 48 h incubation, read-out: caspase potency EC50 RAJ1
Experimental: (§1) Human breast cancer cell lines T-47D, human hepatocellular carcinoma cell line SNU398, human colon carcinoma cell line HCT116, human cancer cell line H11299, human Burkitt's lymphoma cell line Namalwa, human lymphoma cell line Raji, and human B cell lymphoblastoid cell line Ramos were grown according to media component mixtures designated by American Type Culture Collection+10% FCS (Invitrogen Corporation), in a 5% CO2-95% humidity incubator at 37° C. T-47D and H1299 cells were maintained at a cell density between 50 and 80% confluency at a cell density of 0.1 to 0.6×10^6 cells/mL. Cells were harvested at 600×g and resuspended at 0.65×10^6 cells/mL into appropriate media+10% FCS. An aliquot of 22.5 μL of cells was added to a well of a 384-well microtiter plate containing 2.5 μL of a 10% DMSO in RPMI-1640 media solution containing 0.16 to 100 μM of 6-(3,4-dimethoxyphenyl)-3-(2-methoxyphenyl)-[1,2,4]triazolo[3,4-b][1,3,4]thiadiazole or other test compound (0.016 to 10 μM final). An aliquot of 22.5 μL of cells was added to a well of a 384-well microtiter plate containing 2.5 μL of a 10% DMSO in RPMI-1640 media solution without test compound as the control sample. The samples were mixed by agitation and then incubated at 37° C. for 48 h in a 5% CO2-95% humidity incubator. After incubation, the samples were removed from the incubator and 25 μL of a solution containing 14 μM of N-(Ac-DEVD)-N′-ethoxycarbonyl-R110 (SEQ ID No.:1) fluorogenic substrate (Cytovia, Inc.; WO99/18856), 20% sucrose (Sigma), 20 mM DTT (Sigma), 200 mM NaCl (Sigma), 40 mM Na PIPES buffer pH 7.2 (Sigma), and 500 μg/mL lysolecithin (Calbiochem) was added. The samples were mixed by agitation and incubated at room temperature. Using a fluorescent plate reader (Model SPECTRAfluor Plus, Tecan), an initial reading (T=0) was made approximately 1-2 min after addition of the substrate solution, employing excitation at 485 nm and emission at 530 nm, to determine the background fluorescence of the control sample. After the 3 h incubation, the samples were read for fluorescence as above (T=3 h).
(§2) The Relative Fluorescence Unit values (RFU) were used to calculate the sample readings as follows: RFU(T=3h)−Control RFU(T=0)=Net RFU(T=3h)
(§3) The activity of caspase cascade activation was determined by the ratio of the net RFU value for 6-(3,4-dimethoxyphenyl)-3-(2-methoxyphenyl)-[1,2,4]triazolo[3,4-b][1,3,4]thiadiazole (Example I) or other test compound to that of control samples. The EC50 (nM) was determined by a sigmoidal dose-response calculation (Prism 3.0, GraphPad Software Inc.).

[2] = tested on: human Burkitt's lymphoma cell line Namalwa; assay: Caspase cascade activation in Namalwa cells; settings: Burkitts lymphoma cell, 48 h incubation, read-out: caspase potency EC50 Namalwa
Experimental: as §1, §2, §3

[3] = tested on: human B cell lymphoblastoid cell line Ramos; assay: Caspase cascade activation in Ramos cells; settings: 48 h incubation, read-out: caspase potency EC50 RAMOS
Experimental: as §1, §2, §3

[4] = tested on: human hepatocellular carcinoma cell line SNU398; assay: Caspase cascade activation in SNU398 cells; settings: SNU-398, 48 h incubation, read-out: caspase potency EC50 SNU398
Experimental: as §1, §2, §3

[5] = tested on: human colon carcinoma cell line HCT116; assay: Caspase cascade activation in HCT116 cells; settings: HCT-116, 48 h incubation, read-out: caspase potency EC50 HCT116
Experimental: as §1, §2, §3

[6] = tested on: Human breast cancer cell lines T-47D; assay: Caspase cascade activation (Ac-DEVD-R110 fluorogenic substrate) in T-47D cells; settings: T47D cells, 48 h incubation, read-out: caspase potency EC50 T47D
Experimental: as §1, §2, §3

Structure (SMILES)	EC50 [1]	EC50 [2]	EC50 [3]	EC50 [4]	EC50 [5]	EC50 [6]
CCc1nn(C)c(-c2nnc3sc(-c4ccc(OC)cc4)nn23)c1Cl [B, 3-(4-Chloro-3-ethyl-1-methyl-1H-pyrazol-5-yl)-6-(4-methoxyphenyl)-[1,2,4]triazolo[3,4-b][1,3,4]thiadiazole]	5.4 µM	5630 nM	5.3 µM	> 10 µM	> 10000 nM	> 10 µM
CCN(CC)c1ccc(-c2nn3c(-c4cccnc4)nnc3s2)cc1 [D, 6-(4-Diethylaminophenyl)-3-(pyridin-3-yl)-[1,2,4]triazolo[3,4-b][1,3,4]thiadiazole]	5.07 µM	2480 nM	1.1 µM	–	–	–
COc1cc(-c2nnc3sc(-c4ccc(C)c([N+](=O)[O-])c4)nn23)cc(OC)c1OC [Entry 1, 6-(4-Methyl-3-nitrophenyl)-3-(3,4,5-trimethoxyphenyl)-[1,2,4]triazolo[3,4-b][1,3,4]thiadiazole]	–	> 10000 nM	–	> 10 µM	> 10000 nM	> 10 µM
COc1cc(-c2nnc3sc(-c4ccc(C)c(N)c4)nn23)cc(OC)c1OC [Entry 2, 6-(3-Amino-4-methylphenyl)-3-(3,4,5-trimethoxyphenyl)-[1,2,4]triazolo[3,4-b][1,3,4]thiadiazole]	–	626 nM	–	0.645 µM	1320 nM	1.62 µM
COc1cc(-c2nnc3sc(-c4ccc5nc[nH]c5c4)nn23)cc(OC)c1OC [Entry 3, 6-(1H-Benzo[d]imidazol-6-yl)-3-(3,4,5-trimethoxyphenyl)-[1,2,4]triazolo[3,4-b][1,3,4]thiadiazole]	–	> 10000 nM	–	> 10 µM	> 10000 nM	> 10 µM
COc1ccccc1-c1nnc2sc(-c3ccc(C)c([N+](=O)[O-])c3)nn12 [Entry 4, 3-(2-Methoxyphenyl)-6-(4-methyl-3-nitrophenyl)-[1,2,4]triazolo[3,4-b][1,3,4]thiadiazole]	–	> 10000 nM	–	> 10 µM	> 10000 nM	> 10 µM
COc1ccccc1-c1nnc2sc(-c3ccc(OC)c([N+](=O)[O-])c3)nn12 [Entry 6, 6-(4-Methoxy-3-nitrophenyl)-3-(2-methoxyphenyl)-[1,2,4]triazolo[3,4-b][1,3,4]thiadiazole]	–	> 10000 nM	–	> 10 µM	> 10000 nM	> 10 µM
COc1cc(-c2nnc3sc(-c4ccc(N5CCOCC5)cc4)nn23)cc(OC)c1OC [Entry 8, 6-(4-Morpholinophenyl)-3-(3,4,5-trimethoxyphenyl)-[1,2,4]triazolo[3,4-b][1,3,4]thiadiazole]	–	> 10000 nM	–	> 10 µM	> 10000 nM	> 10 µM
COc1ccccc1-c1nnc2sc(-c3ccc(N4CCOCC4)cc3)nn12 [Entry 9, 3-(2-Methoxyphenyl)-6-(4-morpholinophenyl)-[1,2,4]triazolo[3,4-b][1,3,4]thiadiazole]	–	2380 nM	–	2.31 µM	2640 nM	1.27 µM
COc1ccccc1-c1nnc2sc(-c3ccc([N+](=O)[O-])c(OC)c3)nn12 [Entry 10, 6-(3-Methoxy-4-nitrophenyl)-3-(2-methoxyphenyl)-[1,2,4]triazolo[3,4-b][1,3,4]thiadiazole]	–	> 10000 nM	–	> 10 µM	> 10000 nM	> 10 µM
COc1ccccc1-c1nnc2sc(-c3cccnc3)nn12 [Entry 11, 3-(2-Methoxyphenyl)-6-(pyridin-3-yl)-[1,2,4]triazolo[3,4-b][1,3,4]thiadiazole]	–	> 10000 nM	–	> 10 µM	> 10000 nM	> 10 µM
COc1ccccc1-c1nnc2sc(-c3ccc4[nH]ncc4c3)nn12 [Entry 12, 6-(1H-indazol-5-yl)-3-(2-methoxyphenyl)-[1,2,4]triazolo[3,4-b][1,3,4]thiadiazole]	–	649 nM	–	0.571 µM	1170 nM	1.18 µM
COc1ccccc1-c1nnc2sc(-c3ccc4cc[nH]c4c3)nn12 [Entry 13, 6-(1H-indol-6-yl)-3-(2-methoxyphenyl)-[1,2,4]triazolo[3,4-b][1,3,4]thiadiazole]	–	155 nM	–	0.146 µM	663 nM	0.967 µM
COc1ccc(-c2nnc3sc(-c4ccc(N(C)C)cc4)nn23)cc1OC [Entry C1, 3-(3,4-Dimethoxyphenyl)-6-(4-dimethylaminophenyl)-[1,2,4]triazolo[3,4-b][1,3,4]thiadiazole]	> 10 µM	5300 nM	5.18 µM	–	–	–
CN(C)c1ccc(-c2nn3c(-c4ccncc4)nnc3s2)cc1 [Entry H1, 6-(4-Dimethylaminophenyl)-3-(pyridine-4-yl)-[1,2,4]triazolo[3,4-b][1,3,4]thiadiazole]	4.94 µM	2660 nM	3.92 µM	–	–	–
CN(C)c1ccc(-c2nnc3sc(-c4cccc(N(C)C)c4)nn23)cc1 [Entry J1, 3-(4-Dimethylaminophenyl)-6-(3-dimethylaminophenyl)-[1,2,4]triazolo[3,4-b][1,3,4]thiadiazole]	> 10 µM	5530 nM	5.33 µM	–	–	–
COc1ccc(-c2nn3c(-c4n[nH]c5c4CCC5)nnc3s2)cc1OC [Entry L1, 6-(3,4-Dimethoxyphenyl)-3-(1,4,5,6-tetrahydrocyclopenta[c]pyrazol-3-yl)-[1,2,4]triazolo[3,4-b][1,3,4]thiadiazole]	2.69 µM	1310 nM	1.74 µM	–	2760 nM	2.43 µM
CCN(CC)c1ccc(-c2nn3c(-c4cccc(C)c4)nnc3s2)cc1 [G, 6-(4-Diethylaminophenyl)-3-m-tolyl-[1,2,4]triazolo[3,4-b][1,3,4]thiadiazole]	2.93 µM	2350 nM	2.24 µM	–	–	–
CCN(CC)c1ccc(-c2nn3c(-c4ccncc4)nnc3s2)cc1 [J, 6-(4-Diethylaminophenyl)-3-(pyridin-4-yl)-[1,2,4]triazolo[3,4-b][1,3,4]thiadiazole]	1.06 µM	598 nM	0.524 µM	–	–	–
COc1cc(-c2nnc3sc(-c4ccccc4)nn23)cc(OC)c1OC [W, 6-Phenyl-3-(3,4,5-trimethoxyphenyl)-[1,2,4]triazolo[3,4-b][1,3,4]thiadiazole]	> 10 µM	> 10000 nM	> 10 µM	> 10 µM	> 10000 nM	5.04 µM
COc1cc(-c2nnc3sc(-c4ccncc4)nn23)cc(OC)c1OC [X, 6-(Pyridin-4-yl)-3-(3,4,5-trimethoxyphenyl)-[1,2,4]triazolo[3,4-b][1,3,4]thiadiazole]	> 10 µM	> 10000 nM	> 10 µM	2.01 µM	2360 nM	3.61 µM
COc1cc(-c2nnc3sc(-c4cccs4)nn23)cc(OC)c1OC [Y, 6-(Thiophen-2-yl)-3-(3,4,5-trimethoxyphenyl)-[1,2,4]triazolo[3,4-b][1,3,4]thiadiazole]	> 10 µM	> 10000 nM	> 10 µM	> 10 µM	> 10000 nM	5.44 µM
COc1ccc(-c2nn3c(-c4ccccc4Cl)nnc3s2)cc1 [Z, 3-(2-Chlorophenyl)-6-(4-methoxyphenyl)-[1,2,4]triazolo[3,4-b][1,3,4]thiadiazole]	1.56 µM	963 nM	1.02 µM	–	–	–
